Test results reported in patent US8530474B2, “Substituted 6-(1-piperazinyl)-pyridazines as 5-HT6 receptor antagonists” (Janssen Pharmaceutica NV, priority 2008, dated 2013).
pKd, pKi: −log10 of the molar value. Counter-ions that a name gives are not always drawn.

Key:
[1] = biological target: T1, human Serotonin 5-HT6 receptor (Homo sapiens, UniProt P50406); test: In vitro binding affinity for human 5-HT6 receptor ([3H]LSD, membranes of transfected HEK cells); details: human 5-HT6, [3H]Lysergic acid diethylamide 2 nM, HEK cell membranes; read-out: pIC50 Values (5-HT6) (converted)
T1 construct: expressed in transfected cells; host or cells: HEK cells
Description: D. Pharmacology In vitro Binding Affinity for Human 5-HT6 Receptor
Frozen membranes of human Serotonin 5-HT6 receptor-transfected HEK cells were thawed, briefly homogenized using an Ultra-Turrax T25 homogeniser and diluted in 50 mM Tris-HCl assay buffer containing 10 mM MgCl2, 1 mM EDTA and 10 μM Pargyline (adjusted to pH 7.4 with HCl) to an appropriate protein concentration optimized for specific and non-specific binding. Radioligand [^3H]Lysergic acid diethylamide (Perkin Elmer, specific activity ˜80 Ci/mmol) was diluted in assay buffer at a concentration of 20 nM. Radioligand (20 μl), along with 40 μl of either the 10% DMSO control, Methiothepine (10^−5M final concentration for measurement of non specific binding), or compound of interest, was then incubated with 70 μl of the prepared membrane solution and 70 μl of WGA (wheat germ agglutinin) coated PVT (polyvinyltoluidene) beads (0.25 mg/well final concentration). The final concentration of radioligand per well was 2 nM. After shaking for 24 h. at RT, plates were counted in a Topcount™ scintillation counter. Percentage specific binding and competition binding curves were calculated using S-Plus software (Insightful).

human H3 receptor [2] = biological target: T2, human H3 receptor (Homo sapiens, UniProt Q9Y5N1); test: In vitro binding assay for human H3 receptor (125I-iodoproxyfan, SK-N-MC cell membranes); details: iodoproxifan 1 nM, Ki converted from IC50
T2 construct: expressed in transfected cells
Description: In vitro Binding Assay for Human H3 Receptor
Briefly, cell pellets from SK-N-MC cells expressing the human H3 receptor were homogenized in 50 mM Tris-HCl/5 mM EDTA and recentrifuged at 30000 g for 30 min. Pellets were rehomogenized in 50 mM Tris/5 mM EDTA (pH 7.4). Membranes were incubated for 1 h at 25° C. with ^125I-iodoproxyfan diluted with cold iodoproxifan in 50 mM Tris-HCl/5 mM EDTA. The final total iodoproxifan concentration in the reactions is 1 nM. The cold iodoproxifan is included at 0.975 nM and the ^125I-iodoproxyfan is included at 0.025 nM final concentration. The reactions were terminated by filtration thru GF/B plates (pretreated with 0.3% polyethylenimine) on the cell harvester. The plates were washed 5 times with buffer. Nonspecific binding was defined in the presence of 100 μM histamine Inhibitory concentration (responsible for 50% inhibition of maximal effect, IC50) values were determined by a single site curve-fitting program (GraphPad, San Diego, Calif.) and converted to Ki values based on a ^125I-iodoproxyfan dissociation constant (Kd) of 1 nM.

human H3 receptor [3] = biological target: T2, human H3 receptor; details: used to convert IC50 to Ki, read-out: dissociation constant (Kd) of radioligand; cited from earlier work

T1 sequence (P50406 whole entry): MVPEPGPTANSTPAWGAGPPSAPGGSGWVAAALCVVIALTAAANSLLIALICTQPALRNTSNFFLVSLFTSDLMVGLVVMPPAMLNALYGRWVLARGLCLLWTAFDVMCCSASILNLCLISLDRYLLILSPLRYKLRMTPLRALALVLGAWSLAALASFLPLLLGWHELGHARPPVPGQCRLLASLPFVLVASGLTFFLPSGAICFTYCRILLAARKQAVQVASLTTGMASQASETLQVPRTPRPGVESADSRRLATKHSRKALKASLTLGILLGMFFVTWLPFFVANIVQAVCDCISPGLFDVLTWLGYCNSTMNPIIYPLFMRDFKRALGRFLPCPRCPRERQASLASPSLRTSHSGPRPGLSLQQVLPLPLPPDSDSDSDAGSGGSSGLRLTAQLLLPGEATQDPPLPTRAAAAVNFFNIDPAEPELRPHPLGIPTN
T2 sequence (Q9Y5N1 whole entry): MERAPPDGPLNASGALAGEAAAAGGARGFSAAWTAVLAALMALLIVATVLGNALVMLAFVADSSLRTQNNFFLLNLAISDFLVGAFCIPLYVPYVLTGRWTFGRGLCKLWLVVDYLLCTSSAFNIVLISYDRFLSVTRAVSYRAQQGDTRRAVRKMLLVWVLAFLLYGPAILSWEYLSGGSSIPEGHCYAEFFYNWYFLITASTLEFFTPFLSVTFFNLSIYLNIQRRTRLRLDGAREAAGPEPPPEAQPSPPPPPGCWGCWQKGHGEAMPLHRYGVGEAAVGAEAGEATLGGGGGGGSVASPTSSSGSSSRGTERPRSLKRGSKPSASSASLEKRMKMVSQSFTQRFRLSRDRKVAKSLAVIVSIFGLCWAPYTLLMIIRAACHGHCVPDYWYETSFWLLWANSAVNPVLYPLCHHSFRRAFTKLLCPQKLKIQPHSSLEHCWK

| Structure (SMILES) | melting point [°C] | IC50 [1] [µM] | pKi (human H3 receptor [2]) | pKd (human H3 receptor [3]) |
| --- | --- | --- | --- | --- |
| Fc1ccc(Nc2cc(N3CCNCC3)nnc2C(F)(F)F)cc1 (as salt: HCl) (hydrate or solvate) [Co. No. 16, N-(4-fluorophenyl)-6-(1-piperazinyl)-3-(trifluoromethyl)-4-pyridazinamine.2.5HCl .0.5H2O] | > 300 |  |  |  |
| OC(c1ccccc1)c1cc(N2CCNCC2)nnc1C(F)(F)F (stereo not drawn) (as salt: HCl) [Co. No. 5, alpha-phenyl-6-(1-piperazinyl)-3-(trifluoromethyl)-4-pyridazinemethanol] | 199.7 |  |  |  |
| FC(F)(F)c1nnc(N2CCN(Cc3ccncc3)CC2)cc1/C=C/c1ccccc1 (as salt: trifluoroacetate) [Co. No. 17, 4-[(E)-2-phenylethenyl]-6-[4-(4-pyridinylmethyl)-1-piperazinyl]-3-(trifluoromethyl)-pyridazine] | 163.9 |  |  |  |
| Fc1ccc(Oc2cc(N3CCNCC3)nnc2C(F)(F)F)cc1 [Co. No. 1, 4-(4-fluorophenoxy)-6-(1-piperazinyl)-3-(trifluoromethyl)-pyridazine] | 132.5 | 0.251 | 5.30 |  |
| Fc1ccc(Nc2cc(N3CCNCC3)nnc2C(F)(F)F)cc1 [Co. No. 2, N-(4-fluorophenyl)-6-(1-piperazinyl)-3-(trifluoromethyl)-4-pyridazinamine] |  | 0.0631 |  |  |
| FC(F)(F)c1nnc(N2CCNCC2)cc1Cc1ccccc1 [Co. No. 3, 4-(phenylmethyl)-6-(1-piperazinyl)-3-(trifluoromethyl)-pyridazine] | 133.8 | 0.126 | < 5.00 |  |
| O=C(c1ccccc1)c1cc(N2CCNCC2)nnc1C(F)(F)F [Co. No. 4, phenyl[6-(1-piperazinyl)-3-(trifluoromethyl)-4-pyridazinyl]-methanone] | 289.5 | 0.126 | < 5.00 |  |
| OC(c1ccccc1)c1cc(N2CCNCC2)nnc1C(F)(F)F (stereo not drawn) [Co. No. 5, alpha-phenyl-6-(1-piperazinyl)-3-(trifluoromethyl)-4-pyridazinemethanol] |  | 0.631 | < 5.00 |  |
| O=S(=O)(c1ccccc1)c1cc(N2CCNCC2)nnc1C(F)(F)F [Co. No. 6, 4-(phenylsulfonyl)-6-(1-piperazinyl)-3-(trifluoromethyl)-pyridazine] | 180.3 | 0.251 | < 5.00 |  |
| Fc1ccc(/C=C\c2cc(N3CCNCC3)nnc2C(F)(F)F)cc1 [Co. No. 7, 4-[(Z)-2-(4-fluorophenyl)ethenyl]-6-(1-piperazinyl)-3-(trifluoromethyl)-pyridazine] |  | 0.158 | < 5.00 |  |
| Fc1ccc(/C=C/c2cc(N3CCNCC3)nnc2C(F)(F)F)cc1 [Co. No. 8, 4-[(E)-2-(4-fluorophenyl)ethenyl]-6-(1-piperazinyl)-3-(trifluoromethyl)-pyridazine] | 180.6 | 0.0631 | < 5.00 |  |
| Fc1ccc(C#Cc2cc(N3CCNCC3)nnc2C(F)(F)F)cc1 [Co. No. 9, 4-[(4-fluorophenyl)ethynyl]-6-(1-piperazinyl)-3-(trifluoromethyl)-pyridazine] | 251.6 | 1.58 | < 5.00 |  |
| CN1CCN(c2cc(/C=C/c3ccccc3)c(C(F)(F)F)nn2)CC1 [Co. No. 11, 6-(4-methyl-1-piperazinyl)-4-[(E)-2-phenylethenyl]-3-(trifluoromethyl)-pyridazine] | 135.8 | 0.398 | < 5.00 |  |
| CN1CCN(c2cc(C(=O)c3ccccc3)c(C(F)(F)F)nn2)CC1 [Co. No. 13, [6-(4-methyl-1-piperazinyl)-3-(trifluoromethyl)-4-pyridazinyl]phenyl-methanone] | 136.3 | 0.158 | < 5.00 |  |
| Fc1ccc(CNc2cc(N3CCNCC3)nnc2C(F)(F)F)cc1 [Co. No. 14, N-[(4-fluorophenyl)methyl]-6-(1-piperazinyl)-3-(trifluoromethyl)-4-pyridazinamine] |  | 0.631 | < 5.00 |  |
| Fc1ccc(COc2cc(N3CCNCC3)nnc2C(F)(F)F)cc1 [Co. No. 15, 4-[(4-fluorophenyl)methoxy]-6-(1-piperazinyl)-3-(trifluoromethyl)-pyridazine] | 142.1 | 0.398 | < 5.00 |  |
| Fc1ccc(Nc2cc(N3CCNCC3)nnc2C(F)(F)F)cc1 [Co. No. 16, N-(4-fluorophenyl)-6-(1-piperazinyl)-3-(trifluoromethyl)-4-pyridazinamine.2.5HCl .0.5H2O] |  |  | < 5.00 |  |
| FC(F)(F)c1nnc(N2CCN(Cc3ccncc3)CC2)cc1/C=C/c1ccccc1 [Co. No. 17, 4-[(E)-2-phenylethenyl]-6-[4-(4-pyridinylmethyl)-1-piperazinyl]-3-(trifluoromethyl)-pyridazine] |  | 1.26 | < 5.00 |  |
| FC(F)(F)c1nnc(N2CCN(Cc3ccccn3)CC2)cc1/C=C/c1ccccc1 [Co. No. 18, 4-[(E)-2-phenylethenyl]-6-[4-(2-pyridinylmethyl)-1-piperazinyl]-3-(trifluoromethyl)-pyridazine] | 121.4 | 6.31 | < 5.00 |  |
| Ic1ccc(COCCCc2cnc[nH]2)cc1 [^125I-iodoproxyfan] |  |  |  | 9.00 |
